# Assay results published in ChEMBL document CHEMBL4049436, “Inhibitors of 15-Prostaglandin Dehydrogenase To Potentiate Tissue Repair” (J Med Chem, 2017).
# Tests used:
# [1] = Plasma concentration in CD1 mouse at 10 mg/kg, ip measured at 3 hrs post dose by LC-MS/MS analysis; format: ADME, organism-based
# Mus musculus [2] = test: (§1) AUC in CD1 mouse at 10 mg/kg, ip measured at 10 to 1440 mins post dose by LC-MS/MS analysis; format: ADME, organism-based; details: mouse, in vivo
# Liver = test: (§2) Half life in mouse liver S9 fractions at 2 uM in presence of NADPH by LC-MS/MS analysis; format: ADME, tissue-based; details: s9, 2 µM
# Mus musculus [3] = test: (§3) Cmax in CD1 mouse at 10 mg/kg, ip measured at 10 to 1440 mins post dose by LC-MS/MS analysis; format: ADME, organism-based; set-up: dose 10 mg/kg, route intraperitoneal; details: mouse, in vivo
# [4] = as §1; format: ADME, organism-based; details: CD1, mouse, in vivo
# [5] = as §2; format: ADME, tissue-based; details: liver S9 fraction
# [6] = as §3; format: ADME, organism-based; set-up: dose 10 mg/kg, route intraperitoneal; details: CD1, mouse, in vivo
# [7] = Half life in human liver S9 fraction at 2 uM by LC-MS/MS analysis; format: ADME, tissue-based
# [8] = Plasma concentration in […] mouse at […], ip measured up to 3 hrs post dose by LC-MS/MS analysis; format: ADME, organism-based
Compound,concentration at 3 h [1] [µM],AUC (Mus musculus [2]) [µg·min/mL],t1/2 (Liver) [h],Cmax (Mus musculus [3]) [µM],AUC [4] [µg·h/mL],half-life at 2 µM [5] [h],Cmax [6] [µM],other results
CCCC[S+]([O-])c1sc2nc(-c3cccs3)cc(-c3ccccc3)c2c1N (stereo not drawn),–,–,–,–,1.38,1.38,1.5,–
COCCC[S+]([O-])c1sc2nc(-c3nccs3)cc(-c3cnc(C)n3C)c2c1N (stereo not drawn),–,–,> 4,–,–,–,–,–
CCCC[S@+]([O-])c1sc2nc(-c3nccs3)cc(-c3cnc(C)n3C)c2c1N,–,–,–,–,–,4.82,–,half-life at 2 µM [7]: 3.73 h
CCCC[S+]([O-])c1sc2nc(-c3nccs3)cc(-c3ccc(COC(=O)CN(C)C)cc3)c2c1N (stereo not drawn),–,–,0.033,–,–,–,–,–

# Now from value to molecule, other results behind:
concentration at 3 h [1] [µM],AUC (Mus musculus [2]) [µg·min/mL],t1/2 (Liver) [h],Cmax (Mus musculus [3]) [µM],AUC [4] [µg·h/mL],half-life at 2 µM [5] [h],Cmax [6] [µM],Compound,other results
4.2,959,1.38,13,–,–,–,CCCC[S+]([O-])c1sc2nc(-c3nccs3)cc(-c3ccc(OCCO)cc3)c2c1N (stereo not drawn),–
0.06,116,> 4,6.2,–,–,–,COCC[S+]([O-])c1sc2nc(-c3nccs3)cc(-c3cnc(C)n3C)c2c1N (stereo not drawn),–
< 0.01,–,–,–,0.783,0.583,3.1,CCCC[S@@+]([O-])c1sc2nc(-c3nccs3)cc(-c3cnc(C)n3C)c2c1N,half-life at 2 µM [7]: > 4 h; concentration at 3 h [8]: < 0.01 µM
–,–,0.217,–,–,–,–,CCCC[S+]([O-])c1sc2nc(-c3nccs3)cc(-c3ccc(CO)cc3)c2c1N (stereo not drawn),–
–,–,–,–,0.717,0.217,1.6,CCCC[S@@+]([O-])c1sc2nc(-c3cccs3)cc(-c3ccccc3)c2c1N,–
0.06,172,–,10.6,–,–,–,CCCC[S+]([O-])c1sc2nc(-c3nccs3)nc(-c3ccccc3)c2c1N (racemic),–
